Results from patent publication US20250049786A1, “DOPAMINE D3/D2 RECEPTOR MODULATING COMPOUNDS” (Richter Gedeon Nyrt., priority 2023, published 2025).

What was measured:
[1] = test system: Phencyclidine-induced hypermotility in rats; assay: Phencyclidine-induced hypermotility in rats; assay type: in vivo, rat; conditions: minimum effective dose, time spent with ambulation over one hour
Experimental: Spontaneous locomotor activity was measured using a six-channel activity monitor manufactured by Experimetria Ltd. (Budapest, HU). […] Additional arrays of photocells (30 pairs) were placed along opposite sides of the cage at different heights (6.5 cm, 12 cm, 18 cm and 23 cm) in order to detect rearing responses.
Test compounds were administered to study animals either orally or subcutaneously, with ten animals per treatment group. In these studies, male Harlan-Wistar rats (Toxi-Coop, Budapest, HU) weighing 190-210 grams were used. After oral administration of test compound or vehicle, animals were individually habituated to the activity monitors for 30 minutes. In the cases of subcutaneous administration of test compounds, rats were first habituated for 15 minutes to the activity monitors, then treated with the test compound or vehicle followed by replacing them into the activity monitors for an additional 15-minute period of habituation. […]
Data were analyzed using GraphPad® Prism® 9 software (GraphPad, San Diego, CA, USA). […] Drug effect was evaluated using Analysis of Variance (ANOVA, or Welch's ANOVA when appropriate) followed by Dunnett's multiple comparisons test. When appropriate, the ED50 value was determined from percent inhibition data from linear regression analysis.

[2] = Thermodynamic solubility study (37° C., 4 hours); assay type: physicochemical; conditions: PBS pH = 7.4, 4 hours
Experimental: The resulted mixtures/oversaturated solutions are shaken at 37° C. for 4 hrs (to the solution equilibrium) and are filtrated on a Millipore MultiSreen Filter Plate (0.45 μm). Concentrations of the filtrates are determined by LC/UV/MS based on a 5-point calibration. (When the solid material dissolved totally in the aqueous test medium the result should be considered as a minimal value.) Results are shown in Table 2.

[3] = Thermodynamic solubility study (RT, 24 hours); assay type: physicochemical; conditions: PBS pH = 7.4, 24 hours
Experimental: The resulted mixtures were shaken at room temperature (RT) for 24 hrs (to the solution equilibrium) and were filtrated on a Millipore MultiSreen Filter Plate (0.45 μ). Concentrations of the filtrates were determined by LC/UV/MS based on a 5-point calibration. (When the solid material dissolved totally in the aqueous test medium the result should be considered as a minimal value.) Results are shown in Table 2.

human 5-HT2A receptor = human 5-HT2A receptor (Homo sapiens (Human), UniProt P28223); assay: Competitive binding assay at human 5-HT2A receptors ([3H]ketanserin); conditions: CHO-K1 membranes, 1 nM [3H]ketanserin
Experimental: Radioactivity was determined with a MicroBeta^2® microplate counter (PerkinElmer).

human D2L receptors [4] = target: T1, human D2L receptors (Homo sapiens (Human), UniProt P14416); assay: Competitive binding assay at human D2L receptors using [3H]spiperone; conditions: CHO-K1 membranes, 0.16 nM [3H]spiperone
Experimental: CHO-K1 cells expressing human recombinant D2L receptors were washed with phosphate-buffered saline (PBS). Cells were scraped from the plates and centrifuged at 1000×g. Cells were disrupted using a Teflon® pestle homogenizer in buffer containing 25 mM Tris-HCl, pH=7.4, 6 mM MgCl2, 1 mM EDTA, 10 mM phenylmethylsulfonyl fluoride (PMSF). The resulting suspension was centrifuged at 1000×g. The supernatant was collected and centrifuged at 41,000×g. The supernatant was discarded, and the pellet was resuspended in above buffer. The membrane preparation was then aliquoted and stored at −70° C.
Non-specific binding (NSB) was determined in the presence of 10 μM haloperidol (Sigma-Aldrich). After incubation, samples were filtered over UniFilter® GF/C plates (PerkinElmer), washed and Microscint™-20 scintillation cocktail was added. Radioactivity was determined with a MicroBeta^2® microplate counter (PerkinElmer).
From scintillation counts, NSB was subtracted to yield specific binding which was normalized to vehicle-treated samples and converted to displacement % values. IC50 values were determined by a non-linear, least squares regression analysis using MathIQ™ (ID Business Solutions Ltd., Surrey, UK).

human D2L receptors [5] = target: T1, human D2L receptors; assay: Competitive binding assay at human D2L receptors using [3H]raclopride; conditions: CHO-K1 membranes, 2 nM [3H]raclopride
Experimental: (§1) The membrane preparation was then aliquoted and stored at −70° C.

human D3 receptors [6] = target: T2, human D3 receptors (Homo sapiens (Human), UniProt P35462); assay: Competitive binding assay at human D3 receptors using [3H]spiperone; conditions: CHO-K1 membranes, 0.7 nM [3H]spiperone
Experimental: Cells were scraped from the plates and centrifuged at 1000×g. […] The supernatant was collected and centrifuged at 41,000×g. The supernatant was discarded, and the pellet was resuspended in above buffer.
IC50 values were determined by a non-linear, least squares regression analysis using MathIQ™ (ID Business Solutions Ltd., Surrey, UK).

human D3 receptors [7] = target: T2, human D3 receptors; assay: Competitive binding assay at human D3 receptors using [3H]raclopride; conditions: CHO-K1 membranes, ca. […] [3H]raclopride
Experimental: as §1

T2 sequence (P35462 whole entry): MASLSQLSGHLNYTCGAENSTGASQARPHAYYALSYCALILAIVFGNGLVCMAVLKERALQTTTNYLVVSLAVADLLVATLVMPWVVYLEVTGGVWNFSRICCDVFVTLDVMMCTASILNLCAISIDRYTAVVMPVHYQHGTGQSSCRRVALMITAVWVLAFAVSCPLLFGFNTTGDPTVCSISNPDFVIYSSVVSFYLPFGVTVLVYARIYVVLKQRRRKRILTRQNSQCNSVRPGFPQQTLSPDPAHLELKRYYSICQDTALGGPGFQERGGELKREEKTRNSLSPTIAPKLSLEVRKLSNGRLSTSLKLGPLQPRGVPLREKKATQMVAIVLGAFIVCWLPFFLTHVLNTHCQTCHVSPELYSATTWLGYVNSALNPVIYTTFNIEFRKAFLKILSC
T1 sequence (P14416 whole entry): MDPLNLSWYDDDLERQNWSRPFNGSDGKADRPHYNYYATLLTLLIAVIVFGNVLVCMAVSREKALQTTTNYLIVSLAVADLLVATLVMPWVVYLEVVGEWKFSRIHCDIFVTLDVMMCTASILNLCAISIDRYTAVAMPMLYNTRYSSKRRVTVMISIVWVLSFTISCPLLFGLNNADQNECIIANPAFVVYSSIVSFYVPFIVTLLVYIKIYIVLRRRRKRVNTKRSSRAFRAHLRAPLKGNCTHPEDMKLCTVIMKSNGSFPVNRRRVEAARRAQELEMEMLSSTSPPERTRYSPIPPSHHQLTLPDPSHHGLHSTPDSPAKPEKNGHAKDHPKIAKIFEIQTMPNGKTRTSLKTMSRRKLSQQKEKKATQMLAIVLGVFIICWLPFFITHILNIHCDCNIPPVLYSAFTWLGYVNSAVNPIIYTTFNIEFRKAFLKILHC
human 5-HT2A receptor, sequence (P28223 whole entry): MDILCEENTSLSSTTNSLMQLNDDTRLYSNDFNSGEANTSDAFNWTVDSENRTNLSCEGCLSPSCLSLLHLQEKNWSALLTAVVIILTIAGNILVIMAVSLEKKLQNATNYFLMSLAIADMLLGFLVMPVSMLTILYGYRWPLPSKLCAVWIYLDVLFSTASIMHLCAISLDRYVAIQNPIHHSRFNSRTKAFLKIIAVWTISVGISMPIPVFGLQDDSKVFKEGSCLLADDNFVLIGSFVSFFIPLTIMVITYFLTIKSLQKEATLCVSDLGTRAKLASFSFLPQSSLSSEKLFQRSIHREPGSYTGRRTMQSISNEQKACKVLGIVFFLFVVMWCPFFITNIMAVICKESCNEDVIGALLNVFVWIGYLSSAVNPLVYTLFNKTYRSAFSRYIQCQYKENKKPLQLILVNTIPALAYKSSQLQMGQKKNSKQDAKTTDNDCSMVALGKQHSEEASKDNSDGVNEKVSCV

| Compound | PCP (MED, mg/kg) [1] [mg/kg] | Thermodynamic sol. [2] [µM] | Thermodynamic sol. [3] [µM] | 5-HT2A pKi (human 5-HT2A receptor) | D2L pKi [3H]spiperone (human D2L receptors [4]) | D2L pKi [3H]raclopride (human D2L receptors [5]) | D3 pKi [3H] spiperone (human D3 receptors [6]) | D3 pKi [3H]raclopride (human D3 receptors [7]) |
| --- | --- | --- | --- | --- | --- | --- | --- | --- |
| CCOCN(C)C(=O)N[C@H]1CC[C@H](CCN2CCN(c3cccc(Cl)c3Cl)CC2)CC1 [Example 1, N′-[(1r,4r)-4-{2-[4-(2,3-dichlorophenyl)piperazin-1-yl]ethyl}cyclohexyl]-N-(ethoxymethyl)-N-methylurea] | 0.4 | 10.9 ± 0.3 | 45.3 ± 0.6 | 7.64 |  |  |  |  |
| CCCOCN(C)C(=O)N[C@H]1CC[C@H](CCN2CCN(c3cccc(Cl)c3Cl)CC2)CC1 [Example 3, N′-[(1r,4r)-4-{2-[4-(2,3-dichlorophenyl)piperazin-1-yl]ethyl}cyclohexyl]-N-methyl-N-(propoxymethyl)urea] |  | 30.50 ± 3.06 | 39.68 ± 2.15 |  | 8.93 | 8.94 | 9.74 |  |
| CCCN(C)C(=O)N[C@H]1CC[C@H](CCN2CCN(c3cccc(Cl)c3Cl)CC2)CC1 [Ref. Ex. 1, N-[(1r,4r)-4-{2-[4 (2,3-dichlorophenyl)piperazin-1-yl]ethyl}cyclohexyl]-N-methyl-N-propylurea, reference compound] |  | 4.9 ± 0.3 | 6.2 ± 0.3 |  |  |  |  |  |
| CN(C)C(=O)N[C@H]1CC[C@H](CCN2CCN(c3cccc(Cl)c3Cl)CC2)CC1 [Ref. Ex. 2, N′-[(1r,4r)-4-{2-[4-(2,3-dichlorophenyl)piperazin-1-yl]ethyl}cyclohexyl]-N,N-dimethylurea, reference compound] | 0.1 |  |  |  |  |  |  |  |
| COCN(C)C(=O)N[C@H]1CC[C@H](CCN2CCN(c3cccc(Cl)c3Cl)CC2)CC1 [Example 2, N′-[(1r,4r)-4-{2-[4-(2,3-dichlorophenyl)piperazin-1-yl]ethyl}cyclohexyl]-N-(methoxymethyl)-N-methylurea] |  | 58.93 ± 5.32 | 50.93 ± 2.3 | 7.81 | 8.93 | 8.90 | 9.77 | 9.15 |
